Measured values reported in patent publication US20250154611A1, “SYSTEMS AND METHODS TO DETECT STEM CELL STRESS AND USES THEREOF” (Wayne State University, priority 2014, published 2025).
Read-outs that look alike come from different tables or passages of the source.

Legend:
[1] = system: MEK1/2; assay: phospho-MEK1/2 western blot in mESCs under 200 mM sorbitol; type: cell-based, mouse; settings: returned to baseline by 20 min
From the text: (§1) FIG. 14. […] Blots are representative of triplicate experiments. Phospho-proteins and their loading controls are grouped between black lines.
Hyperosmotic activation of signaling enzymes. […] Zhong, 2010; Xie, 2011. After screening 21 signaling kinases in 11 subfamilies using 14 inhibitors, 5 kinases in the mitogen activated protein kinase (MAPK) and PI3K families were identified as producing differentiation-priming effects in hyperosmotic conditions. To determine the kinetics of activation of these five kinases in the described system, mESCs were treated with 200 mM sorbitol for 1 hr. Expression levels of the activated (i.e., phosphorylated) enzymes were assayed by western blot analysis (FIG. 14), including phospho-p38MAPK, phospho-JNK, phospho-MEK1/2, and phospho-AKT (the downstream effector of PI3K signaling). Activated p38MAPK was 1st detected at 10 min of stimulation; activation persisted throughout 1 hr of stimulation. Similarly, activated JNK was 1st detected at 20 min of stimulation, and persisted throughout 1 hr of stimulation. Activated MEK1/2 and activated AKT were present endogenously at low levels at time zero; sorbitol stimulated higher activation levels of each.

[2] = system: SAPK; settings: 100 mM, 20% O2, despite FGF4; cited from earlier work
[3] = system: mESCs
Method: Hyperosmotic stress effects on cell proliferation in murine embryonic stem cells (mESCs). (FIG. 13A) mESCs were cultured in the presence of 0-400 mM sorbitol for either 4 or 24 hr and transmitted light micrographs were taken. (FIG. 13B) mESCs were cultured±leukemia inhibitory factor (LIF) and ±200 mM sorbitol for 0-72 hr. mESCs were trypsinized and counted with a hemocytometer following trypan blue exclusion. Error flags represent standard error of the mean, n≥3. (FIG. 13C) Doubling rates were calculated and tabulated from cell counts in (FIG. 13B). (FIG. 13D) mESCs were incubated in the presence of LIF±200 mM sorbitol for 24, 48, or 72 hr and transmitted light micrographs were taken. (FIG. 13E) mESCs were cultured in the presence of 200 mM sorbitol for 0-24 hr. In some wells, cells were lysed, and proteins were fractionated using sodium dodecyl sulfate-polyacrylamide gel electrophoresis (SDS-PAGE), blotted, and probed for the presence of the caspase 3 cleavage product (n=3). Time-matched cells were fixed, and stained for the cleavage product of caspase 3 with Hoechst staining of the nuclei. […]
Results. mESC growth and colony morphology during hyperosmotic stress. […] Osmolality was measured at 330±4 mOsm/kg H2O before sorbitol addition (described in “Materials and Methods” section; Zhong, 2007), and 531±7 mOsm/kg H2O after addition of 200 mM sorbitol. […]

[4] = system: TSCs; assay: qPCR of terminal differentiation markers in TSCs with or without 100 mM sorbitol; type: cell-based, mouse; settings: 0.5% O2, 7 days
Method: . TSCs were cultured in 0-20% O2 for 0-7 days±FGF4 as indicated, rapidly frozen, and assayed for free ATP (n=4). (FIG. 6B) At 7 days, FGF4 absence increased terminal differentiation markers 8-20 fold at 20% O2, but lower differentiation levels at 0.5% O2 were not increased by a sorbitol dose, which induces high levels of differentiation at 20% O2. TSCs were cultured for 7 days±FGF4 at 20% or 0.5% O2±100 mM sorbitol. mRNA was purified and reverse transcribed, then analyzed for relative amounts of 3 terminal differentiation markers that were normalized to housekeeping mRNAs. Triplicate experiments are shown, with mean±s.e.m. (error bars). […]. (FIG. 6D) Correspondingly, at 7 days, mitochondrial Δψm increased only at O2≥2% with FGF4 removal. TSCs were cultured for 7 days at 20% O2 (a,d), 2% O2 (b,e), or 0.5% O2 (c,f) with FGF4 (a-c) or without FGF4 (d-f) and stained with JC1. Micron bar in micrograph (a) indicates […]. Green fluorescence indicates monomeric stain and low membrane charge and red fluorescence indicates polymeric stain and high charge. For original color fluorescence figures see (Xie, Stem Cell Research, 13:478, 2014 (Xie, 2014)).
RNA isolation and quantitative reverse transcription-PCR (qRT-PCR). […] Briefly, DNase-treated total RNA was isolated following cDNA preparation using QuantiTect Reverse Transcription Kit […] (Qiagen). […]

[5] = target: p38MAPK (Mus musculus, UniProt P47811); assay: phospho-p38 western blot in mESCs under 200 mM sorbitol; type: cell-based; settings: 200 mM, persisted throughout 1 hr
Method: as §1
FIG. 15. […] Blots are representative of triplicate experiments.
Hyperosmotic activation of signaling enzymes. […] Zhong, 2010; Xie, 2011. […] To determine the kinetics of activation of these five kinases in the described system, mESCs were treated with 200 mM sorbitol for 1 hr. Expression levels of the activated (i.e., phosphorylated) enzymes were assayed by western blot analysis (FIG. 14), including phospho-p38MAPK, phospho-JNK, phospho-MEK1/2, and phospho-AKT (the downstream effector of PI3K signaling).
Efficacy of enzyme inhibitors.

Sequence of p38MAPK (P47811 whole entry): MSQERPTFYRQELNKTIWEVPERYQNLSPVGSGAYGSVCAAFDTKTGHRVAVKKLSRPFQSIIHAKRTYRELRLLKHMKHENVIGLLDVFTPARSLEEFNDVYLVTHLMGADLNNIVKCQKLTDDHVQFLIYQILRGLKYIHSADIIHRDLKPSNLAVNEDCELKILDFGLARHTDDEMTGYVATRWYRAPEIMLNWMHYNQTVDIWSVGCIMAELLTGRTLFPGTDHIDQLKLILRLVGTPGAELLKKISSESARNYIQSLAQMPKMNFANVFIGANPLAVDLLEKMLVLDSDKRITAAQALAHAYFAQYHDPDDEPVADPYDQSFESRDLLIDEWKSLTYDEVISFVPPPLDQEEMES

OC[C@@H](O)[C@@H](O)[C@H](O)[C@@H](O)CO [sorbitol]
time of increased MEK1/2 activation [1]: ≤ 10 min | SAPK increase [2]: 5 fold | lethality in mESCs ([3]; 200 mM): nonlethal | lethality in mESCs ([3]; 400 mM): lethal | mRNA expression of terminal differentiation markers PL1, Plf, synTa [4]: did not increase | time at which activated p38MAPK was first detected [5]: 10 min
